Assay [1] concerns TGFBR3^lo mouse BFU-E cells. Kind of assay: colony forming assay for large BFU-E colony numbers. Type of assay: cell-based. Conditions: culture system; FIG. 12. How it is done:
FIG. 12. A chart showing an exemplary colony forming assays were conducted to determine large BFU-E colony numbers from 100 TGFBR3^lo mouse BFU-E cells cultured under the indicated conditions. Colony forming assays were performed at indicated time points.
(§1) For new drug discovery or drug repurposing for treating blood diseases, compounds of interest were added into cell culture after progenitor purification. The efficacy of drugs is evaluated based on total red blood cell production, numbers of erythroid progenitor BFU-E and CFU-E (quantified by colony forming assay) and/or level of fetal globin expression.

The subject of assay [2] is purified mouse TGFBR3^lo BFU-E cells. Kind of assay: total red cell production from purified BFU-E cells in SFELE medium. Type of assay: cell-based. Conditions: culture system; FIG. 13. How it is done: FIG. 13. A chart showing the treatment of purified mouse TGFBR3^lo BFU-E cells with DMSO, DEX or TGFβ signaling inhibitor galunisertib. The cells were seeded in SFELE medium supplemented with the test agent.
as §1

The values that follow come from patent US11371019B2, “Efficient generation of human red blood cells via enriching peripheral blood erythroid progenitors” (Whitehead Institute for Biomedical Research, priority 2016, dated 2022).

With `Cc1cccc(-c2nn3c(c2-c2ccnc4ccc(C(N)=O)cc24)CCC3)n1` [galunisertib], in assay [1], the BFU-E numbers entry is “increase BFU-E numbers”. Also, in assay [2], the “total red cell production” value is recorded as “increase”.
